Results published in ChEMBL document CHEMBL3431459, “Roche carnitine palmitoyltransferase modulator screening data (supplementary data associated with the publication CHEMBL2216752)”.
pIC50: −log10 of the molar value.

Tests used:
[1] = target: T1, Carnitine O-palmitoyltransferase 1, muscle isoform (Homo sapiens, UniProt Q92523); experiment: SUPPLEMENTARY: Inhibition of Carnitine palmitoyltransferase 1, muscle isoform; design: species or system Muscle tissue
T1 sequence (Q92523 whole entry): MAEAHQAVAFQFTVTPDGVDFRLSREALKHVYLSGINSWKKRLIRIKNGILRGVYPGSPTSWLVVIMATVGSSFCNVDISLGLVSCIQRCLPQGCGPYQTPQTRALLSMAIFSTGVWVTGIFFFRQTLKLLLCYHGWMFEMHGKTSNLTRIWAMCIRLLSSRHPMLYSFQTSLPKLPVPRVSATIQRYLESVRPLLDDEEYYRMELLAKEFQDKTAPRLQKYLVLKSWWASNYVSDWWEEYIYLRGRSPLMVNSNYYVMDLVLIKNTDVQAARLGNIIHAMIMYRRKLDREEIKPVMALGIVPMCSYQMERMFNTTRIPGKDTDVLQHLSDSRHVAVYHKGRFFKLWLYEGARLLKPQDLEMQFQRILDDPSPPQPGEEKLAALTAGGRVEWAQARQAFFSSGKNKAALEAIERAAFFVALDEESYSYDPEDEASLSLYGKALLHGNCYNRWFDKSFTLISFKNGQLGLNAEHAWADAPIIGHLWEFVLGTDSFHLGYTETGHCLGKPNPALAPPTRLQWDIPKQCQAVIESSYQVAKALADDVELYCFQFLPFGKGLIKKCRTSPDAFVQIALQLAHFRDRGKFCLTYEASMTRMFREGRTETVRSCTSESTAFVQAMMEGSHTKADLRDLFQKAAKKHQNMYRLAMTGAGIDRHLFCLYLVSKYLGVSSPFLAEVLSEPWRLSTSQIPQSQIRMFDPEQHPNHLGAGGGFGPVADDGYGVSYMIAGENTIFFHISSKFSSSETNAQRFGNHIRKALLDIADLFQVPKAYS

[2] = target: T2, Carnitine O-palmitoyltransferase 2, mitochondrial (Homo sapiens, UniProt P23786); experiment: (§1) SUPPLEMENTARY: Inhibition of Carnitine palmitoyltransferase 2
T2 sequence (P23786 whole entry): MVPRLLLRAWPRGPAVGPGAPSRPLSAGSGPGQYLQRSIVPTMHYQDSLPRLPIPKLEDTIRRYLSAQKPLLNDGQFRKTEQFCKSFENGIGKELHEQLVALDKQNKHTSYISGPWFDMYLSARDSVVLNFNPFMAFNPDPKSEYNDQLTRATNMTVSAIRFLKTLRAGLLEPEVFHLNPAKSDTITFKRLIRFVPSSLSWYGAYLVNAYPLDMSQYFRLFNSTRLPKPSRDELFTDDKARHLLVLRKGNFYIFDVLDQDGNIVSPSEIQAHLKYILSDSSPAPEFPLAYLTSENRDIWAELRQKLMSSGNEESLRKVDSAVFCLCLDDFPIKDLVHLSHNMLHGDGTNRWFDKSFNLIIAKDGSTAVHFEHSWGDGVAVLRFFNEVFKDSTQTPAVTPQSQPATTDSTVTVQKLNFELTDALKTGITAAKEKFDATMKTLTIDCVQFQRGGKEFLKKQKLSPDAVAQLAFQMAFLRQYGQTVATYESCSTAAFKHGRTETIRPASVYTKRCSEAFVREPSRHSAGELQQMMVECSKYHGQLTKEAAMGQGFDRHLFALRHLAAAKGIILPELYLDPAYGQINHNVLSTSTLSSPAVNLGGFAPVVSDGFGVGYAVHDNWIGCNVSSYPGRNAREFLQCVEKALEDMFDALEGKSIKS

[3] = target: T3, Carnitine O-palmitoyltransferase 2, mitochondrial (Rattus norvegicus, UniProt P18886); experiment: as §1
T3 sequence (P18886 whole entry): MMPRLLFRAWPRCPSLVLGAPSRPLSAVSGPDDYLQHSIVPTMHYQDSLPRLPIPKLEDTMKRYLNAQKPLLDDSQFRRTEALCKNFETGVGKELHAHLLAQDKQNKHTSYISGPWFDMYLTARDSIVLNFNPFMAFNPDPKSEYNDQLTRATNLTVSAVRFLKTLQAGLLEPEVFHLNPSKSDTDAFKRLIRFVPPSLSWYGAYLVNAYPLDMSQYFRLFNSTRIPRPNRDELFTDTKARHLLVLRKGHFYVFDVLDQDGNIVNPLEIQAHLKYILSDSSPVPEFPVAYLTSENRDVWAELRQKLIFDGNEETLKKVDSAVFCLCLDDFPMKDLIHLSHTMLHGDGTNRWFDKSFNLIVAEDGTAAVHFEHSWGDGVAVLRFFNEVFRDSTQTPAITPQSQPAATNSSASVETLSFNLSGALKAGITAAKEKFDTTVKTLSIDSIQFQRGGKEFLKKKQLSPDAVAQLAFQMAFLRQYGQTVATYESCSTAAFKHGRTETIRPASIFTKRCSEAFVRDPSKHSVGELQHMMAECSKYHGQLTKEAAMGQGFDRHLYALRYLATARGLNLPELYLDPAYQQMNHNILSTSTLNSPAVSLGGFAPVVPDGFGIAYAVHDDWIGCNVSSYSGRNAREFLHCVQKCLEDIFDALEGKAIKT

[4] = target: T4, Carnitine O-palmitoyltransferase 1, liver isoform (Homo sapiens, UniProt P50416); experiment: (§2) SUPPLEMENTARY: Inhibition of Carnitine palmitoyltransferase 1, liver isoform
T4 sequence (P50416 whole entry): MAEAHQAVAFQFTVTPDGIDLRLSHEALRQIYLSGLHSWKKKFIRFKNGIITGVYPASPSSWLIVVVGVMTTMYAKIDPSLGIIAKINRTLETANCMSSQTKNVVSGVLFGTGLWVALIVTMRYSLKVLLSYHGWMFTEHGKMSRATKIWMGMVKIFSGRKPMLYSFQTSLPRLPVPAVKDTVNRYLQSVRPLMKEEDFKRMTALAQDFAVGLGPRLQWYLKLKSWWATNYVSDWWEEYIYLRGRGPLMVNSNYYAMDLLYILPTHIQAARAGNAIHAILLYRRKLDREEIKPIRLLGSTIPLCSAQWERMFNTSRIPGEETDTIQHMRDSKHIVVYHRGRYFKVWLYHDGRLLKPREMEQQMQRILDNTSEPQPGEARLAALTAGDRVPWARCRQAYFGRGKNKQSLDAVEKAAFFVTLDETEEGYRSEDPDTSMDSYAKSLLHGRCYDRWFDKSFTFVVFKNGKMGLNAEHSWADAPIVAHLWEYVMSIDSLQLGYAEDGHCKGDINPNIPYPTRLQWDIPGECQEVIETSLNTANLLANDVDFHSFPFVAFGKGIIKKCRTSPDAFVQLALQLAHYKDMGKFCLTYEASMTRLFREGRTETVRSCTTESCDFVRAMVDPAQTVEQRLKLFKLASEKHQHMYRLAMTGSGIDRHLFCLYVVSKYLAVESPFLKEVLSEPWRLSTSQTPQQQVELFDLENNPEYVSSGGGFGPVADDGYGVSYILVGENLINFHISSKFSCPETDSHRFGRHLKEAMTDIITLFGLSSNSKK

[5] = target: T5, Carnitine O-palmitoyltransferase 1, liver isoform (Rattus norvegicus, UniProt P32198); experiment: as §2
T5 sequence (P32198 whole entry): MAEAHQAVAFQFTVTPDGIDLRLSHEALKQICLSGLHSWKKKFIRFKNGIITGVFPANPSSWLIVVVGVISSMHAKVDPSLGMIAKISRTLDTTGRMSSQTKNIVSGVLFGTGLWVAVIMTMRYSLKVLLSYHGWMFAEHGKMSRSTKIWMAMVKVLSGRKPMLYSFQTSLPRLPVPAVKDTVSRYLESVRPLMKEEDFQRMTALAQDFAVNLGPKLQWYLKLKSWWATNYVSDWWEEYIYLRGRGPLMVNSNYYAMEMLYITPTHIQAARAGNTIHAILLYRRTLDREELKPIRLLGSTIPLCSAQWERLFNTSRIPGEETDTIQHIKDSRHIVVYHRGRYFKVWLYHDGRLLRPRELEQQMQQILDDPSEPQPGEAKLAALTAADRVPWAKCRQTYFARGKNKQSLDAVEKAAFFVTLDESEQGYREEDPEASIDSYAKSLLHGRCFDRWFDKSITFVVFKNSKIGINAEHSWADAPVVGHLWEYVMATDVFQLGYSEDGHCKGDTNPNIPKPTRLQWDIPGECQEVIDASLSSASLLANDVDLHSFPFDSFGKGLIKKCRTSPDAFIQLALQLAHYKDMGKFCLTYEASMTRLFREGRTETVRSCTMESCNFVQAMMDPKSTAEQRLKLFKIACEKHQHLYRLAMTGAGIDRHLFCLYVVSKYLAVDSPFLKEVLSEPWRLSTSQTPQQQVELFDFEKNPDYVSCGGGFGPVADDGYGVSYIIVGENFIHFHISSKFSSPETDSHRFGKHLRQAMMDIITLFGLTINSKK

Row | Compound | pIC50 [1] | pIC50 [2] | pIC50 [3] | pIC50 [4] | pIC50 [5]
1 | O=C(NCc1ccc(-c2nnn[nH]2)cc1)c1nn(Cc2ccc(OC(F)F)cc2)c2ccc(F)cc12 | 5.07 | < 4.00 | < 4.00 | 6.66 | 6.40
2 | COc1ccc(Cl)cc1S(=O)(=O)c1n[nH]c2ccc(C(=O)Nc3ccccc3)cc12 | < 4.00 | < 4.00 | < 4.00 | 6.76 | 6.99
3 | COc1ccc(Cl)cc1S(=O)(=O)c1nn(C)c2ccc(C(=O)Nc3ccc(C(=O)O)c(Cl)c3)cc12 | 5.77 | 4.67 | 4.45 | 7.38 | 7.80
4 | O=C(COc1ccccc1)NS(=O)(=O)Cc1ccc(-c2nc([C@H]3CCCCN3C(=O)COc3ccccc3)cs2)cc1 | 5.64 | 5.62 | 5.18 | 6.67 | 6.44
5 | O=C([C@H]1CCCCN1C(=O)COc1ccccc1)N1CCN(c2ccccn2)CC1 | < 4.00 | 5.99 | 5.47 | 6.62 | 6.23
6 | O=C([C@H]1CCCCN1C(=O)COc1ccccc1)N1CCc2c(Cl)cccc2C1 | < 4.00 | 6.20 | 5.79 | 6.65 | 6.44
7 | O=C(O)c1ccccc1CCc1ccc(NS(=O)(=O)c2ccc(Cl)cc2)cc1 | < 4.00 | < 4.00 | 4.55 | < 5.00 | < 5.00
8 | O=C(COc1ccccc1)N1CCCC[C@@H]1c1noc(-c2cc(F)c(F)cc2F)n1 | < 4.00 | < 4.00 | < 4.00 | 6.81 | 6.76
9 | O=C(COc1ccccc1)N1CCCC[C@@H]1c1nnn(-c2ccccc2)n1 | < 4.00 | < 4.00 | < 4.00 | 6.81 | 7.11
10 | CCCN(c1cc(C(=O)Nc2ccn(CC(=O)O)n2)cc2c1OCO2)S(=O)(=O)c1cc(Cl)ccc1OC | 5.75 | < 4.00 | < 4.00 | 6.49 | 6.60
11 | COc1ccc(Cl)cc1S(=O)(=O)N(CCC(=O)O)c1cc(C(=O)Nc2ccccc2)cc2c1OCO2 | 5.55 | < 4.00 | < 4.00 | 6.76 | 5.77
12 | O=C(COc1ccccc1)N1CCCC[C@@H]1c1nnn(-c2ccc(F)cc2)n1 | < 4.00 | < 4.00 | < 4.00 | 6.70 | 6.59
13 | COc1ccc(Cl)cc1[S+]([O-])c1c[nH]c2ccc(C(=O)Nc3ccccc3)cc12 (centres undefined) | < 4.00 | < 4.00 | < 4.00 | < 5.00 | < 5.00
14 | O=C([C@H]1CCCCN1C(=O)COc1ccccc1)N1CCN(c2cccc(Cl)c2)CC1 | < 4.00 | 6.26 | 6.54 | 6.82 | 6.63
15 | O=C([C@H]1CCCCN1C(=O)COc1ccccc1)N1CCN(c2ncccn2)CC1 | < 4.00 | 5.81 | 5.58 | 6.78 | 6.49
16 | CCN(c1cc(C(=O)Nc2ccc(CC(=O)O)cc2)cc2c1OCO2)S(=O)(=O)c1cc(Cl)ccc1OC | 5.55 | 4.42 | < 4.00 | 6.55 | 6.46
17 | CCN(c1cc(C(=O)Nc2ccn(CC(=O)O)n2)cc2c1OCO2)S(=O)(=O)c1cc(Cl)ccc1OC | 5.86 | < 4.00 | < 4.00 | 6.47 | 6.16
18 | COCCN(c1cc(C(=O)Nc2ccc(CC(=O)O)cc2)cc2c1OCO2)S(=O)(=O)c1cc(Cl)ccc1OC | 5.82 | < 4.00 | < 4.00 | 6.21 | 6.34
19 | O=C(COc1ccccc1)N1CCCC[C@@H]1C#Cc1ccc2[nH]cnc2c1 | 5.14 | < 4.00 | < 4.00 | 6.89 | 7.14
20 | O=C([C@H]1CCCCN1C(=O)COc1ccccc1)N1Cc2ccc(OC3CCOCC3)cc2C1 | < 4.00 | 6.71 | 6.19 | 6.99 | 7.14
21 | Nc1ccc(-c2n[nH]c([C@H]3CCCCN3C(=O)COc3ccccc3)n2)cn1 |  | 4.10 | 4.04 | 6.49 | 6.12
